The target in assay [1] is T1, human GLP1R (Homo sapiens, UniProt P43220). In words: Human GLP1R cAMP accumulation assay. Format: cell-based. Also noted: HEK293 cells over-expressing full length human GLP-1R were utilized; expressed in transfected cells; host or cells: HEK293 (HEK293/hGLP1R). As for the experimental part: 8.1 Human GLP1R cAMP Accumulation Assay (Cyclic AMP Determination)
The functional activity of the test compounds for agonizing GLP1R were evaluated using a cell-based assay. For the assay, HEK293 cells over-expressing full length human GLP-1R were utilized and the downstream cAMP accumulation was assessed as a measure of human GLP-1R stimulation. […] Diluted compounds were transferred to OptiPlates (100 nL/well) using an Echo liquid handler. HEK293/hGLP1R cells were thawed in 37° C. water-bath, washed 2 times with HBSS and re-suspended in assay buffer (HBSS+5 mM HEPES+500 μM IBMX+0.1% BSA). […] After centrifugation, the assay plate was incubated at 23° C. for 30 min. The reaction was terminated by adding 10 μL of lysis buffer containing D2-cAMP and a cAMP-antibody from the cyclic AMP immunoassay kit (Cisbio, Cat #62AM4PEJ). […] The levels of cAMP per well were calculated using a standard curve generated by GraphPad Prism. Percent activity was calculated according to the formula (% Activity=100%*(cAMP level-LC)/(HC-LC)). EC50 values were fitted from a four-parameter logistic equation over a 10-point response curve (GraphPad Prism).
For orientation: Cyclic AMP is a second messenger, typically raised through Gs and lowered through Gi signalling.

Assay [2] deals with T1, human GLP1R. The assay can be described thus: Luciferase reporter assay, HEK293/CRE-Luc/hGLP1R (Example 17). Format: cell-based. The arrangement: engineered to express full-length human GLP1R, cynomolgus GLP1R; expressed in transfected cells; host or cells: HEK293/CRE-Luc. The note with it: HEK293/CRE-Luc/hGLP1R; for S/N: highest RLU / RLU of untreated wells; for Relative Potency (% M2361 EC50) / Relative Signal:Noise (% M2361): relative to M2361 of the same experiment; for EC50: payloads and linker-payloads, experiments A-E, M2361 repeated in each, read-out: EC50. The source says: (§1) To test the activity of GLP1R agonist payloads, GLP1R agonist linker-payloads (LPs), and anti-GLP1R antibody tethered drug conjugates (ATDCs) of the invention, a cell-based cAMP responsive luciferase reporter assay was developed. To generate the assay cell line, the firefly luciferase gene was placed under the control of a cAMP response element (CRE) located upstream of a minimal promoter and transfected into HEK293 cells and referred to herein as HEK293/CRE-Luc cells.
(§2) Three-fold serial dilutions of free payloads or LPs were prepared in 100% DMSO, transferred to fresh assay media, and added to the cells at a final constant DMSO concentration of 0.2%. The last well in the plate served as a blank control containing only the assay media and 0.2% DMSO (untreated well) and was plotted as a continuation of the 3-fold serial dilution. Four to six hours later, luciferase activity was determined after the addition of One-Glo™ reagent (Promega, Cat #E6130) to each well. Relative light units (RLUs) were measured on an Envision luminometer (PerkinElmer) and EC50 values were determined using a four-parameter logistic equation over a 12-point dose response curve (GraphPad Prism). The signal to noise (S/N) was determined by taking the ratio of the highest RLU on the dose response curve to the RLU in the untreated wells. Data was generated across several experiments (A-E) with M2361 serving as a reference standard in each experiment to calculate the payload relative potency ((M2361 EC50/payload EC50)*100)) and relative S/N ((payload SN/M2361 SN)*100)).
On the technique in general: A reporter such as luciferase makes a cellular process visible.

Another assay relates to HEK293/CRE-Luc cells. The assay can be described thus: Luciferase reporter assay, HEK293/CRE-Luc cells without GLP1R (Example 17). Type of assay: cell-based, human. The note with it: HEK293/CRE-Luc cells without hGLP1R, payloads and linker-payloads; for EC50: read-out: EC50.
Text: as §1, §2

[3] abbreviates: HEK293/hGLP1R cells, Table 4, read-out: cAMP EC50.

Where a SMILES comes first, the peptide text is derived from it. [ ]: non-standard residue; d: D form. The star is where a group is joined. Bip(2'-Et,4'-O(CH2)4NH2) = CCc1cc(OCCCCN)ccc1-c1ccc(C[C@H](N)C(=O)O)cc1; Nva(5-(3,5-Me2Ph)) = Cc1cc(C)cc(CCC[C@H](N)C(=O)O)c1; Ala(1H-tetrazol-5-yl) = N[C@@H](Cc1nnn[nH]1)C(=O)O; αMePhe(2-F) = C[C@](N)(Cc1ccccc1F)C(=O)O; X9 = O=C([C@@H]1CCN(CCc2cnc[nH]2)C1)*; X8 = O=C([C@H]1CCN(CCc2cnc[nH]2)C1)*

T1 sequence (P43220 24-463): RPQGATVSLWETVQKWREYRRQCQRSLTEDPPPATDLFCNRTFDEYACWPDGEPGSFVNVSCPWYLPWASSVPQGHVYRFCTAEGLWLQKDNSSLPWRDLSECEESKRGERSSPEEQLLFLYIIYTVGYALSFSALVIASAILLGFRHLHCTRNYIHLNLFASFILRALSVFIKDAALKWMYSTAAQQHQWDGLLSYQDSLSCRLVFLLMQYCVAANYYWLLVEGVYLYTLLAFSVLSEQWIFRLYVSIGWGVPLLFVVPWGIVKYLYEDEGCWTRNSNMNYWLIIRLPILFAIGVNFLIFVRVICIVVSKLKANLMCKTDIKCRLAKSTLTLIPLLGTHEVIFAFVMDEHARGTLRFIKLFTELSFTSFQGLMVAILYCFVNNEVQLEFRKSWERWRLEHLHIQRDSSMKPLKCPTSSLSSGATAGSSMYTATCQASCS

Take `CCc1cc(OCCCCn2cc(COCCOCCOCCOCCNC(=O)CCC(=O)N3Cc4ccccc4C#Cc4ccccc43)nn2)ccc1-c1ccc(C[C@H](NC(=O)[C@H](CC(=O)O)NC(=O)[C@H](CO)NC(=O)[C@@H](NC(=O)[C@](C)(Cc2ccccc2F)NC(=O)[C@@H](NC(=O)CNC(=O)[C@H](Cc2nn[nH]n2)NC(=O)C(C)(C)C(=O)NCCc2cnc[nH]2)[C@@H](C)O)[C@@H](C)O)C(=O)N[C@@H](CCCc2cc(C)cc(C)c2)C(N)=O)cc1` [LP8, DIBAC-suc-PEG4-triazole-P8]: the EC50 on human GLP1R [1] (setting [3]) was determined as 0.412 nM.

Take `CCc1cc(OCCCCNC(=O)CNC(=O)CNC(=O)CNC(=O)CNC(=O)[C@H](CO)NC(=O)CCC(=O)N2Cc3ccccc3C#Cc3ccccc32)ccc1-c1ccc(C[C@H](NC(=O)[C@H](CC(=O)O)NC(=O)[C@H](CO)NC(=O)[C@@H](NC(=O)[C@](C)(Cc2ccccc2F)NC(=O)[C@@H](NC(=O)CNC(=O)[C@H](Cc2nn[nH]n2)NC(=O)C(C)(C)C(=O)NCCc2cnc[nH]2)[C@@H](C)O)[C@@H](C)O)C(=O)N[C@@H](CCCc2cc(C)cc(C)c2)C(=O)Nc2ccccc2)cc1` [LP16, DIBAC-suc-SG4-P23]: at human GLP1R [1] (setting [3]), the half-maximal effective concentration (EC50) amounted to 1.04 nM.

Take `CCc1cc(OCCCCNC(=O)[C@@H](CO)NC(=O)CNC(=O)CNC(=O)CNC(=O)CNC(=O)COC2C#CCCCCC2)ccc1-c1ccc(C[C@H](NC(=O)[C@H](CC(=O)O)NC(=O)[C@H](CO)NC(=O)[C@@H](NC(=O)C(C)(Cc2ccccc2F)NC(=O)[C@@H](NC(=O)CNC(=O)[C@H](Cc2nn[nH]n2)NC(=O)C(C)(C)C(=O)NCCc2cnc[nH]2)[C@@H](C)O)[C@@H](C)O)C(=O)N[C@@H](CCCc2cc(C)cc(C)c2)C(N)=O)cc1` (stereo partly drawn) [LP19, COT-G4-(R)Ser-P9]: the concentration giving a half-maximal response (EC50) at human GLP1R [1] (setting [3]) came to 0.558 nM.

As to `CCc1cc(OCCCCNC(=O)CNC(=O)CNC(=O)CNC(=O)CNC(=O)[C@H](CO[C@@H]2OC(CO)[C@@H](O)C(O)C2O)NC(=O)CCC(=O)N2Cc3ccccc3C#Cc3ccccc32)ccc1-c1ccc(C[C@H](NC(=O)[C@H](CC(=O)O)NC(=O)[C@H](CO)NC(=O)[C@@H](NC(=O)[C@](C)(Cc2ccccc2F)NC(=O)[C@@H](NC(=O)CNC(=O)[C@H](Cc2nn[nH]n2)NC(=O)C(C)(C)C(=O)NCCc2cnc[nH]2)[C@@H](C)O)[C@@H](C)O)C(=O)N[C@@H](CCCc2cc(C)cc(C)c2)C(N)=O)cc1` (stereo partly drawn) [LP20, DIBAC-suc-(glucose) SG4-P9], on human GLP1R [1] (setting [3]), the EC50 turned out to be 0.314 nM.

At human GLP1R [1], `CCc1cc(OCCCCNC(=O)CCOCCOCCOCCOCCOCCOCCOCCOCCOCCOCCOCCOCCOCCOCCOCCOCCOCCOCCOCCOCCOCCOCCOCCOCCNC(=O)CCC(=O)N2Cc3ccccc3-c3nnn(CC4OC5OC6C(CO)OC(OC7C(CO)OC(OC8C(CO)OC(OC9C(CO)OC(OC%10C(CO)OC(OC4C(O)C5O)C(O)C%10O)C(O)C9O)C(O)C8O)C(O)C7O)C(O)C6O)c3-c3ccccc32)ccc1-c1ccc(C[C@H](NC(=O)[C@H](CC(=O)O)NC(=O)[C@H](CO)NC(=O)[C@@H](NC(=O)[C@](C)(Cc2ccccc2F)NC(=O)[C@@H](NC(=O)CNC(=O)[C@H](Cc2nn[nH]n2)NC(=O)C(C)(C)C(=O)NCCc2cnc[nH]2)[C@@H](C)O)[C@@H](C)O)C(=O)N[C@@H](CCCc2cc(C)cc(C)c2)C(N)=O)cc1` (stereo partly drawn) [LP22, cyclo-dex-trin-triazole-DIBAC-suc-PEG24-P9] registered an EC50 of 2.71 nM.

Regarding `CCc1cc(OCCCCN)ccc1-c1ccc(C[C@H](NC(=O)[C@H](CC(=O)O)NC(=O)[C@H](CO)NC(=O)[C@@H](NC(=O)[C@](C)(Cc2ccccc2F)NC(=O)[C@@H](NC(=O)CNC(=O)[C@@H](N)CCC(N)=O)[C@@H](C)O)[C@@H](C)O)C(=O)N[C@@H](CCCc2cc(C)cc(C)c2)C(N)=O)cc1` [M2913], on human GLP1R [2], the S/N was found to be 3.2, the “Relative Potency (% M2361 EC50)” value came out at 0.0% and the “Relative Signal:Noise (% M2361)” value was determined as 4.9%. In the assay on HEK293/CRE-Luc cells, the S/N is reported as 1.1 and the EC50 was over 200 nM.

As for `CCc1cc(OCCCCNC(=O)[C@H](CO)NC(=O)CNC(=O)CNC(=O)CNC(=O)CNC(=O)C(CO)NC(=O)CNC(=O)CNC(=O)CNC(=O)CN)ccc1-c1ccc(C[C@H](NC(=O)[C@H](CC(=O)O)NC(=O)[C@H](CO)NC(=O)[C@@H](NC(=O)[C@](C)(Cc2ccccc2F)NC(=O)[C@@H](NC(=O)CNC(=O)[C@H](Cc2nn[nH]n2)NC(=O)C(C)(C)C(=O)NCCc2cnc[nH]2)[C@@H](C)O)[C@@H](C)O)C(=O)N[C@@H](CCCc2cc(C)cc(C)c2)C(N)=O)cc1` (stereo partly drawn) [M2945], at human GLP1R [2], the S/N is recorded as 71.8, the 50% effective concentration (EC50) turned out to be 0.0255 nM, the “Relative Potency (% M2361 EC50)” value stood at 31.4% and the “Relative Signal:Noise (% M2361)” value is recorded as 99.9%. Moreover, in the assay on HEK293/CRE-Luc cells, the S/N came out at 1.4 and the 50% effective concentration (EC50) was over 20 nM.

For the molecule `CCc1cc(OCCCCN)ccc1-c1ccc(C[C@H](NC(=O)[C@H](CC(=O)O)NC(=O)[C@H](CO)NC(=O)[C@@H](NC(=O)[C@](C)(Cc2ccccc2F)NC(=O)[C@@H](NC(=O)CNC(=O)[C@H](Cc2nn[nH]n2)NC(=O)[C@]2(C)CCN(CCc3cnc[nH]3)C2=O)[C@@H](C)O)[C@@H](C)O)C(=O)N[C@@H](CCCc2cc(C)cc(C)c2)C(N)=O)cc1` [P14-S], at human GLP1R [1] (setting [3]), the EC50 worked out at 0.727 nM.

For the molecule `CCc1cc(OCCCCN)ccc1-c1ccc(C[C@H](NC(=O)[C@H](CC(=O)O)NC(=O)[C@H](CO)NC(=O)[C@@H](NC(=O)[C@](C)(Cc2ccccc2F)NC(=O)[C@@H](NC(=O)CNC(=O)[C@H](Cc2nn[nH]n2)NC(=O)[C@@]2(C)CCN(CCc3cnc[nH]3)C2=O)[C@@H](C)O)[C@@H](C)O)C(=O)N[C@@H](CCCc2cc(C)cc(C)c2)C(N)=O)cc1` [P15], at human GLP1R [2], the S/N amounted to 67.8, the “Relative Potency (% M2361 EC50)” value is listed as 40.3% and the “Relative Signal:Noise (% M2361)” value turned out to be 103.1%. For the same molecule, in the assay on HEK293/CRE-Luc cells, the S/N was found to be 1.1 and the EC50 was over 200 nM.

For the molecule `CCc1cc(OCCCCN)ccc1-c1ccc(C[C@H](NC(=O)[C@H](CC(=O)O)NC(=O)[C@H](CO)NC(=O)[C@@H](NC(=O)[C@](C)(Cc2ccccc2F)NC(=O)[C@@H](NC(=O)CNC(=O)[C@H](Cc2nn[nH]n2)NC(=O)[C@H]2CCN(CCc3cnc[nH]3)C2)[C@@H](C)O)[C@@H](C)O)C(=O)N[C@@H](CCCc2cc(C)cc(C)c2)C(N)=O)cc1` [P16-S] (X8-[Ala(1H-tetrazol-5-yl)]GT[αMePhe(2-F)]TSD[Bip(2'-Et,4'-O(CH2)4NH2)][Nva(5-(3,5-Me2Ph))]-NH2), the EC50 at human GLP1R [1] (setting [3]) is 0.544 nM.

`CCc1cc(OCCCCN)ccc1-c1ccc(C[C@H](NC(=O)[C@H](CC(=O)O)NC(=O)[C@H](CO)NC(=O)[C@@H](NC(=O)[C@](C)(Cc2ccccc2F)NC(=O)[C@@H](NC(=O)CNC(=O)[C@H](Cc2nn[nH]n2)NC(=O)[C@H]2CCN(CCc3cnc[nH]3)C2)[C@@H](C)O)[C@@H](C)O)C(=O)N[C@@H](CCCc2cc(C)cc(C)c2)C(N)=O)cc1` [P16] (X8-[Ala(1H-tetrazol-5-yl)]GT[αMePhe(2-F)]TSD[Bip(2'-Et,4'-O(CH2)4NH2)][Nva(5-(3,5-Me2Ph))]-NH2): at human GLP1R [2], the S/N is 55.1, the concentration for a half-maximal effect (EC50) turned out to be 0.217 nM, the “Relative Potency (% M2361 EC50)” value is recorded as 2.5% and the “Relative Signal:Noise (% M2361)” value came out at 83.8%. In the assay with HEK293/CRE-Luc cells, the S/N was 1.1 and the EC50 is over 200 nM.

For `CCc1cc(OCCCCN)ccc1-c1ccc(C[C@H](NC(=O)[C@H](CC(=O)O)NC(=O)[C@H](CO)NC(=O)[C@@H](NC(=O)[C@](C)(Cc2ccccc2F)NC(=O)[C@@H](NC(=O)CNC(=O)[C@H](Cc2nn[nH]n2)NC(=O)[C@@H]2CCN(CCc3cnc[nH]3)C2)[C@@H](C)O)[C@@H](C)O)C(=O)N[C@@H](CCCc2cc(C)cc(C)c2)C(N)=O)cc1` [P17-R] (X9-[Ala(1H-tetrazol-5-yl)]GT[αMePhe(2-F)]TSD[Bip(2'-Et,4'-O(CH2)4NH2)][Nva(5-(3,5-Me2Ph))]-NH2), on human GLP1R [1] (setting [3]), the EC50 came out at 11.2 nM.

A word on the EC50: it is the midpoint of the concentration-response curve.

For the origin of these results see US20230330254A1 (Regeneron Pharmaceuticals, Inc., priority 2022, published 2023).
